Assays:
[1] = tested on: HIV-1 (latent, in resting CD4+ T cells from infected individuals); details: earlier study of the inventors (32); cited from earlier work
[2] = tested on: HIV-1 (latent, in resting CD4+ T cells from infected individuals); type: cell-based; details: for virus release into supernatant (in words): 24 hours of treatment; for ρ, median fold change in supernatant HIV-1 mRNA versus DMSO control observed in the ex vivo assay: lower bound, as no virion production was detectable for DMSO
Procedure: Production and release of HIV-1 virions by LRA-treated rCD4s indicates complete reversal of latency in those cells. To assess whether combinations of LRAs induced rapid virus release, HIV-1 mRNA were measured in the culture supernatants of LRA-treated rCD4s from infected individuals on suppressive ART using an RT-qPCR assay previously shown to provide sensitive and accurate quantitation of HIV-1 virion production (45). […] The Bliss independence model was applied to quantitate interactions between LRAs.
(§1) The final DMSO percentage was 0.2% (v/v) for all single and combination treatments. Concentrations were chosen based on previous ex vivo studies with rCD4s from infected individuals as well as studies using in vitro latency models (13, 28, 29, 32-34) with the aim of selecting clinically relevant concentrations.
HIV-1 mRNA was extracted from 0.25 mL of supernatant from the LRA-treated cell cultures described above with 0.75 mL of TRIzol® LS Reagent (Invitrogen) according to the manufacturer's protocol. cDNA synthesis and real-time quantitative PCR was performed as described (32). […] The limit of detection for each qPCR was 10 copies per reaction, which scaled to a limit of detection of 150 copies per mL of culture supernatant. Primers and probes are listed below. Molecular standard curve was generated as described above.
(§2) The Bliss independence model, one method to predict the expected combined effects of multiple drugs assuming the drugs act through independent mechanisms, as a metric by which to evaluate the latency reversing activity of drug combinations was used. The Bliss independence model is defined by the equation:
(§3) If Dfaxy=0, then the drug combination follows the Bliss model for independent action. […] In this analysis, the fraction affected was calculated as follows for intracellular HIV-1 mRNA and for supernatant HIV-1 virion quantitation:
(§4) fax=(copies drug X−copies DMSO control)/(copies PMA/I−copies DMSO control)

[3] = cancer patients; cited from earlier work
[4] = tested on: HIV-1 (latent, in resting CD4+ T cells from infected individuals)
Text: as §1, §2, §3, §4

[5] = continuous infusion for 14 or 21 days; cited from earlier work
HIV-1 = details: patients on ART; cited from earlier work
[6] = tested on: HIV-1 (latent, in resting CD4+ T cells from infected individuals); details: earlier study (32); cited from earlier work

Structure (SMILES)	latency reversal in rCD4s from infected individuals (in words) [1]	virus release into supernatant (in words) [2]	ρ, median fold change in supernatant HIV-1 mRNA versus DMSO control observed in the ex vivo assay [2]	further results
Cc1sc2c(c1C)C(c1ccc(Cl)cc1)=N[C@@H](CC(=O)OC(C)(C)C)c1nnc(C)n1-2 [JQ1]	only minimally active	–	–	–
CCC/C=C/C=C/C(=O)O[C@H]1/C(=C/C(=O)OC)C[C@H]2C[C@H]([C@@H](C)O)OC(=O)C[C@H](O)C[C@@H]3C[C@H](OC(C)=O)C(C)(C)[C@](O)(C[C@@H]4C/C(=C/C(=O)OC)C[C@H](/C=C/C(C)(C)[C@]1(O)O2)O4)O3 [bryostatin-1]	–	significant virus release	120	clinical tolerability (in words) [3]: dose limiting toxicities grade 3/4 myalgia, arthralgia, and weakness; induction of intracellular HIV-1 mRNA (significance, in words) ([4]; 1 nM bryostatin-1): did not induce significant intracellular HIV-1 mRNA; mean increase in intracellular HIV-1 mRNA, fold induction relative to DMSO control ([4]; rCD4s from infected individuals on ART, 24 h, 10 nM bryostatin-1, 300 nM prostratin, 40 nM romidepsin, 50 ng/mL PMA + 1 μM ionomycin): 12.8 fold; approximated maximally tolerated dose [5]: ~16 μg/m2/day; intracellular HIV-1 mRNA induction relative to the maximum reactivation elicited by T cell activation [1]: four
CC(=O)O[C@@]12C[C@@H](C)[C@@]3(O)[C@@H](C=C(CO)C[C@]4(O)C(=O)C(C)=C[C@@H]34)[C@@H]1C2(C)C [prostratin]	–	significant virus release	209	–
C/C=C1\NC(=O)[C@H]2CSSCC/C=C/[C@H](CC(=O)N[C@H](C(C)C)C(=O)N2)OC(=O)[C@H](C(C)C)NC1=O [romidepsin]	–	–	15	–
O=C(CCCCCCC(=O)Nc1ccccc1)NO [vorinostat]	only minimally active	–	–	increase in plasma HIV-1 RNA using quantitative clinical assays (in words) (HIV-1): no increases in plasma HIV-1 RNA; viral production ex vivo (in words) [6]: fail to stimulate detectable viral production
